In one experiment the target is PIK3CB (Human) (UniProt P42338). The experiment can be described thus: Inhibition of PIK3CB Kinase Activity.
In a further experiment the target is PIK3CA (human) (UniProt P42336). The experiment can be described thus: Inhibition of PIK3CA Kinase Activity.
Sequence of PIK3CA (human) (P42336 whole entry, looked up): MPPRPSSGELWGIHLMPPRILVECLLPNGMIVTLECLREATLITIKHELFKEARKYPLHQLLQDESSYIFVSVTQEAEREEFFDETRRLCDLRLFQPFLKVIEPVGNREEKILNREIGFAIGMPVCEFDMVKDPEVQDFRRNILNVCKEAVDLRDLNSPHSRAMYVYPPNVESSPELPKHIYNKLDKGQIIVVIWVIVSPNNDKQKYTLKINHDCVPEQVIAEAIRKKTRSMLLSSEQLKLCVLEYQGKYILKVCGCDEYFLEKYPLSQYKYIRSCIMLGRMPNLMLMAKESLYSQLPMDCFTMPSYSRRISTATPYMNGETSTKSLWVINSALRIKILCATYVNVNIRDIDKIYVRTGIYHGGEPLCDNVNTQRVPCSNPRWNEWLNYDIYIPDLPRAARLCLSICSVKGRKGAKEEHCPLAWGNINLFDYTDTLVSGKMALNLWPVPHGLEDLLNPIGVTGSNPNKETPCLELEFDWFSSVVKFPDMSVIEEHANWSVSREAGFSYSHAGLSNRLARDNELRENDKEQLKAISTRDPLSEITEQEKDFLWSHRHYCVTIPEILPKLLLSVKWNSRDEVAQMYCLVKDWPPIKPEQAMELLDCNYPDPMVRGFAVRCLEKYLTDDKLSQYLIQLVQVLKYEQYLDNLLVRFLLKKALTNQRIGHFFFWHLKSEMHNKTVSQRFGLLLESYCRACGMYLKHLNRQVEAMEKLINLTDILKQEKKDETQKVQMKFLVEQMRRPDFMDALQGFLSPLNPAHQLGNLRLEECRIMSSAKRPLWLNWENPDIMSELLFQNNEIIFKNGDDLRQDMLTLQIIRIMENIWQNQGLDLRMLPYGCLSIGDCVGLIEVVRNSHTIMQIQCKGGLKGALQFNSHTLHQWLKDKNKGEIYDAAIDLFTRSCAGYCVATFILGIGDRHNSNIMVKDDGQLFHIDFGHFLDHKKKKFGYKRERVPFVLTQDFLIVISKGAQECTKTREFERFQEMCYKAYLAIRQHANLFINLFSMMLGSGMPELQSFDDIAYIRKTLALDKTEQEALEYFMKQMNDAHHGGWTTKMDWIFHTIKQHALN

Sequence of PIK3CB (Human) (P42338 whole entry, looked up): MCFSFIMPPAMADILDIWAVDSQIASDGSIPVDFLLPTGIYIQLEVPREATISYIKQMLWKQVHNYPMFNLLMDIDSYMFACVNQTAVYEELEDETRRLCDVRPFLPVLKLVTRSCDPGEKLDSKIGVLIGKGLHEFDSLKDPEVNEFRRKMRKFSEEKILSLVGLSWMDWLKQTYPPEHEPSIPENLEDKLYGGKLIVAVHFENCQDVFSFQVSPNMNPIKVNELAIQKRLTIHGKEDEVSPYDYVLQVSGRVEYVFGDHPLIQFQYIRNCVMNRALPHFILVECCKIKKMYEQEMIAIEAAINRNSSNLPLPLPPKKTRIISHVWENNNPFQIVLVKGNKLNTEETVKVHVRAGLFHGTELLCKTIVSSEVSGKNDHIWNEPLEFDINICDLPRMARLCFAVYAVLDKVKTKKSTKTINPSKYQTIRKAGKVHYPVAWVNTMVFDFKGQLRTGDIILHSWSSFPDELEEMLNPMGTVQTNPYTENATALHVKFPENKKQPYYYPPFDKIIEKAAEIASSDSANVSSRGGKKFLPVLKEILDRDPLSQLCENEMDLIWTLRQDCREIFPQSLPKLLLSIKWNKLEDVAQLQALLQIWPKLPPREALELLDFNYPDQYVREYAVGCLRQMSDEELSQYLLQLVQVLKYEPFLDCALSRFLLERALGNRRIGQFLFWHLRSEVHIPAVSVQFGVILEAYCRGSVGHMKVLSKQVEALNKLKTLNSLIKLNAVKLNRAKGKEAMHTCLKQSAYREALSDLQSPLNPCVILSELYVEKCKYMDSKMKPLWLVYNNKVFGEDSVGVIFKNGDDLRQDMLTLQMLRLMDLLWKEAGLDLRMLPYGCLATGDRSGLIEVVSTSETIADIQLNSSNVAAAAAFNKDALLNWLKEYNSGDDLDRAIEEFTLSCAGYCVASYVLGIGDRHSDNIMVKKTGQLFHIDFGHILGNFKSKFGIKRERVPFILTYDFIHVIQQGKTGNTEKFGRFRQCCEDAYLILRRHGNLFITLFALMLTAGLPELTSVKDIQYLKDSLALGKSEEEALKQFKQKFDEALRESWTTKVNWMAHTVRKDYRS

One may read the IC50 as the point on the concentration scale where inhibition reaches its midpoint. A higher IC50 goes with a need for much substance. `COc1cc(-c2ccc3nc(NC(C)=O)sc3c2)cnc1Br` returned an IC50 against PIK3CB (Human) of 13300 nM.

`COc1ccc(COc2nccc(-c3ccc4nc(NC(C)=O)sc4c3)n2)cc1`: the IC50 against PIK3CB (Human) was 13300 nM.

For the compound `CC(=O)Nc1nc2ccc(-c3cnc(Cl)c(OC(C)C)c3)cc2s1`, the IC50 against PIK3CA (human) turned out to be 44.1 nM; on PIK3CB (Human) it was 472 nM.

On to `CC(=O)Nc1nc2ccc(-c3cccc(N)c3)nc2s1`, for which, on PIK3CB (Human), the IC50 was determined as 13300 nM.

Take `CC(=O)Nc1nc2ccc(-c3ccnc(N4CCC[C@@H]4c4ccccc4)n3)cc2s1`: the half-inhibitory concentration (IC50) against PIK3CA (human) was found to be 2620 nM; against PIK3CB (Human) it was 1610 nM.

With `CC(=O)Nc1nc2ccc(-c3ccnc(OCCCN4CCOCC4)n3)cc2s1`, the IC50 on PIK3CB (Human) came to 11000 nM.

As to `CC(=O)Nc1nc2ccc(-c3ccnc(N4CCC[C@@H]4c4ccccc4C)n3)cc2s1`, the IC50 was 1560 nM at PIK3CA (human) and 778 nM against PIK3CB (Human).

For the compound `CC(=O)Nc1nc2ccc(-c3cnc(Cl)c(OC4CCOC4)c3)cc2s1` (stereo not drawn), the IC50 on PIK3CA (human) amounted to 169 nM; on PIK3CB (Human) it was 2870 nM.

The compound `CC(=O)Nc1nc2ccc(-c3cnc(Cl)c(F)c3)cc2s1` returned an IC50 against PIK3CB (Human) of 13300 nM.

These data come from the Kinase Knowledgebase extract (Sharma et al. 2016).
